Results on one compound are retold here after patent US11510931B2, “Compositions and methods for treating ophthalmic conditions” (MEDICON PHARMACEUTICALS, INC., priority 2016, dated 2022).

The structures appear in SMILES notation.

What all share (format): in vivo, rabbit
What all share (settings): Con A DED rabbits, 6 days, eye drops 3×/day; PS nanoparticles, cyclosporine 0.05%, lifitegrast 5%; mean ± SEM

In experiment [1] the test system is IL-1β. As to the kind of experiment: IL-1β levels in the ILG of rabbits with DED (ELISA). How it is done:
(§1) Using this model, we compared the effect of PS to that of cyclosporine and lifitegrast. Rabbits were treated for 6 days with PS as above or cyclosporine 0.05% or lifitegrast 5% eye drops 3×/day. In addition to determining TUBT, osmolarity and STT, we measured the levels of IL-8 and IL-1β in the ILGs of the rabbits harvested at euthanasia. Both of these cytokines are significant mediators of inflammation in DED. As shown in the table below, PS had statistically significant effects on TBUT, tear osmolarity, IL-8 and IL-1β levels. […] Of note, lifitegrast suppressed STT below the levels of the vehicle group and this suppression was statistically significant, but in the opposite direction for a useful therapeutic effect.
(§2) Moreover, for all three cytokines PS suppressed their unstimulated levels as well (62%, 84% and 4.7% reduction, respectively). In addition, PS suppressed the levels of IL-8 by 64% and IL-1β (not expressed by the cultured cells) by 61% in the ILG of rabbits treated with PS for 1 week compared to controls treated with vehicle (FIG. 8B). TGF-β was not detectable by the method in ILG homogenates. All these changes were statistically significant (p<0.001-0.04, except for the unstimulated TGF-β).
Background: An ELISA detects its analyte on a solid surface through an enzyme-linked reagent.

Experiment [2] has as its system IL-8. Kind of experiment: IL-8 levels in the ILG of rabbits with DED (ELISA). How it is done: as §1, §2
Experiment [3] deals with concanavalin A-induced dry eye in rabbits. Kind of experiment: Concanavalin A (Con A)-induced dry eye disease (DED) model in rabbits: TBUT, Schirmer test, tear osmolarity, tear lactoferrin. As for the experimental part:
To assess the efficacy of PS on DED an improved concanavalin A model was used. In the concanavalin A model, dry eye is induced by injecting the lacrimal glands of a mammal with concanavalin A, a selective T cell mitogen that induces a lymphocytic infiltrate in these glands. The concanavalin A model is generally described in (Barabino S. Animal models of dry eye. Arch Soc Esp Oftalmol. 2005; 80(12):693-4). Concanavalin A was injected to the lacrimal glands under ultrasound guidance, thus eliminating injections to the vicinity of the gland (as opposed to the gland itself). The head and the tail of the major lacrimal gland of the rabbit were injected separately. The dose of concanavalin A was optimized for DED signs.
In the testing described below, four markers of DED are monitored: the tear break up time (TBUT), the Schirmer test, tear osmolarity, and tear lactoferrin levels. All assays were performed at the same clock time (±1 hr) to avoid assay variability on account of circadian variations.
In an efficacy experiment using the concanavalin A model, one group of rabbits was treated with compound 5, also known as phosphosulindac and abbreviated as PS, 1.5% eye drops and one group with vehicle. […] It is thus clear that PS applied topically suppresses DED.
Con A was injected under ultrasound guidance into all the lacrimal glands and the success of the injection was verified by a post-injection ultrasound image (see FIG. 1 and FIG. 2). […] This variation explains why the blind injections recommended in the original method are often unsuccessful. This was confirmed by mixing the Con A solution with methylene blue and tracking its course after injection. In about ⅓ of the cases, Con A ended up outside the gland.
Four parameters of efficacy were evaluated instead of the usual one or two. They include (a) the tear break up time (TBUT), determined using 0.2% fluorescein over the eye and recording the time taken to develop black dots, lines or obvious disruption of the fluorescein film; (b) tear osmolarity, measured using TearLab Osmolarity Test and following the manufacturer's instructions (TearLab Corp., San Diego, Calif.); (3) Schirmer tear test (STT), determined using Schirmer strips (EagleVision, Denville, N.J.) inserted between the cornea and the palpebral conjunctiva at the mid-point of the lower lid and measuring the length of moistened strip at 5 min; and (4) tear lactoferrin levels measured by ELISA kit (MyBiosource, San Diego, Calif.) following the instructions of the manufacturer. All four have been used in clinical practice and correlate with the clinical activity of the disease. The STT is the least reliable and, as result, it is clinically used less than half as frequently as TBUT.
The injections of Con A to the lacrimal glands were repeated weekly as needed. When longer than a 1-week periods of study are needed, repeat injections prolong dry eye for at least 3 weeks, making the originally acute model chronic.
PS Suppresses Con A—Induced Dry Eye in Rabbits. The effect of PS on dry eye was determined in New Zealand White (NZW) rabbits, 2-3 kg (Charles River Labs, Waltham, Mass.). These rabbits were housed singly in rooms with strict temperature (70±5° F.) and humidity (45±5%) control and acclimated for at least 2 weeks prior to induction of dry eye by injection of Con A as above. NZW rabbits with Con A-induced dry eye (three sets of injections) were treated with PS formulated as nanoparticles and administered topically as eye drops 3×/day for 21 days, starting on the day of Con A injection. […] Similar results were obtained on days 5 and 14 (data not shown).
Using this model, we compared the effect of PS to that of cyclosporine and lifitegrast. Rabbits were treated for 6 days with PS as above or cyclosporine 0.05% or lifitegrast 5% eye drops 3×/day. In addition to determining TUBT, osmolarity and STT, we measured the levels of IL-8 and IL-1β in the ILGs of the rabbits harvested at euthanasia. […]

`CS(=O)(=O)c1cccc(C[C@H](NC(=O)c2c(Cl)cc3c(c2Cl)CCN(C(=O)c2ccc4ccoc4c2)C3)C(=O)O)c1` [Lifitegrast, lifitegrast, reference compound]: the “IL-1β in the ILG” value in experiment [1] is 11.5 ± 1.9 pg/mg protein. Also, the “IL-8 in the ILG” value in experiment [2] is given as 9.0 ± 2.4 pg/mg protein. Also, in experiment [3], the Osmolarity was determined as 290 ± 4.2 mOsm/L, the STT is given as 6.9 ± 0.7 mm and the TBUT turned out to be 9.1 ± 3.0 s.
